Measured values as given in patent US9315459B2, “Crystalline forms of 4-[2-(4-methylphenylsulfanyl)-phenyl] piperidine” (priority 2006, dated 2016).

Columns and labels:
C57/B6 mice = assay: Formalin model of neuropathic pain, time spent licking the injured paw; format: in vivo; details: summary in words of table 4
Method: The irritation caused by the formalin injection elicits a characteristic biphasic behavioural response, as quantified by the amount of time spent licking the injured paw. The first phase (˜0-10 minutes) represents direct chemical irritation and nociception, whereas the second (˜20-30 minutes) is thought to represent pain of neuropathic origin. The two phases are separated by a quiescent period in which behaviour returns to normal. Measuring the amount of time spent licking the injured paw in the two phases assesses the effectiveness of test compounds to reduce the painful stimuli. Eight C57/B6 mice (ca. 25 g) were tested per group. Table 4 below show the amount of time spent licking the injured paw in the two phases, i.e. 0-5 minutes and 20-30 minutes post formalin injection. The amount of compound administered is calculated as the free base.

[1] = target: T1, human alpha1A-7 receptors (Homo sapiens, UniProt P35348); assay: Functional assay, adrenaline evoked release of Ca2+ in CHO cells expressing human alpha1A-7 receptors; format: cell-based
T1 construct: expressed in transfected cells; host or cells: CHO cells
T1 sequence (P35348 1-466): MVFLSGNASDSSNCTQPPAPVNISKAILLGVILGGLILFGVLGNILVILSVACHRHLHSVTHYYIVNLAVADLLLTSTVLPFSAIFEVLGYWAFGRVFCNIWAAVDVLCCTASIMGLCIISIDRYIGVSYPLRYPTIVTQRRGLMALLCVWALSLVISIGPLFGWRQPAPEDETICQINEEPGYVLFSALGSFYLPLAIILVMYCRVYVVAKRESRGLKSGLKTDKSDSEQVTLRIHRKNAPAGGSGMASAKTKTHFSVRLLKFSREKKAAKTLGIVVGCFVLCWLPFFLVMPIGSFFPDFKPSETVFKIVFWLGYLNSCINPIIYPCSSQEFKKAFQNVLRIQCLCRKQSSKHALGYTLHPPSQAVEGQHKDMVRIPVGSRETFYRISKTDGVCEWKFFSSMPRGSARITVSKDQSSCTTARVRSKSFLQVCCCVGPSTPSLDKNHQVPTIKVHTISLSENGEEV
Method: These experiments were carried out essentially as described below. All cells were cultured in DMEM medium supplemented with 10% BCS, 4 mM L-glutamine (or 2 mM in the case of COS-7), and 100 units/ml penicillin plus 100 μg/ml streptomycin, at 37° C., in 5% CO2. Twenty-four hours prior to assays, CHO cells expressing the human alpha1A-7 receptors were seeded into 384-well black wall microtiter plates coated with poly-D-lysine. […] After excess dye was discarded, cells were washed in assay buffer and layered with a final volume equal to 45 μl/well (or 30 ul/well for antagonist assay). […] Basal fluorescence was monitored in a fluorometric imaging plate reader or FLIPR™ from Molecular Devices (Sunnyvale, Calif.) with an excitation wavelength of 488 nm and an emission range of 500 to 560 nm. Laser excitation energy was adjusted so that basal fluorescence readings were approximately 8,000 relative fluorescent units (RFU). Cells were then stimulated at room temperature with agonists diluted in assay buffer (15 μl), and RFU were measured at 1.5 second intervals over a period of 2.5 min. Maximum change in fluorescence was calculated for each well. Concentration-response curves derived from the maximum change in fluorescence were analyzed by nonlinear regression (Hill equation).

[2] = tested on: extracellular levels of acetylcholine; assay: Microdialysis, extracellular acetylcholine in prefrontal cortex of freely-moving rats (Example 2F); format: in vivo, rat; details: Wistar rats, s.c., FIG. 24
Method: The experiment was designed to evaluate the effects of compounds of the present invention on extracellular levels of acetylcholine in the prefrontal cortex of freely-moving rats.
Male Wistar rats (280-350 g; Harlan, Zeist, The Netherlands) were used for the experiments. Rats were individually housed in plastic cages (30×30×40 cm) and had ad libitum access to food and water.
Rats were anesthetized using isoflurane (2%, 400 mL/min N2O, 400 ml/min O2). Lidocain (10% m/v) was used for local anesthesia. […]
Experiments were carried out 24-48 hours after surgery. […] Samples were collected by an automated fraction collector (CMA 142), and stored at −80° C. until analyzed. […]
Concentrations of acetylcholine were determined by HPLC with tandem mass spectrometry (MS/MS) detection. […]
The LC/MS analyses were performed using an API 4000 MS/MS system consisting of an API 4000 MS/MS detector and a Turbo Ion Spray interface (both from Applied Biosystems, the Netherlands). […] Data were calibrated and quantitated using the Analyst™ data system (Applied Biosystem, version 1.2).
Two consecutive microdialysis samples with less then 50% variation were taken as baseline levels and set at 100%. Changes in acetylcholine concentration were expressed as percent of baseline within the same subject.

Compound: Cc1ccc(Sc2ccccc2C2CCNCC2)cc1 [compound I, 4-[2-(4-methylphenylsulfanyl)-phenyl]piperidine]
- Effect in the first phase (direct chemical irritation and nociception) (C57/B6 mice): little effect
- Effect in the second phase (time spent licking paws) (C57/B6 mice): clear and dose dependent decrease
- Functional profile, adrenaline evoked release of Ca2+ [1]: antagonists
- Extracellular level of acetylcholine [2]: increase
